Where “and” joins values, the source holds several entries; their conditions need not be identical. Equal entries are not always repeated.
Target: T1, human leukocyte 5-lipoxygenase (Homo sapiens, UniProt P09917)
T1 construct: endogenous in cells; host or cells: intact leukocytes isolated from human blood
T1 sequence (P09917 1-674): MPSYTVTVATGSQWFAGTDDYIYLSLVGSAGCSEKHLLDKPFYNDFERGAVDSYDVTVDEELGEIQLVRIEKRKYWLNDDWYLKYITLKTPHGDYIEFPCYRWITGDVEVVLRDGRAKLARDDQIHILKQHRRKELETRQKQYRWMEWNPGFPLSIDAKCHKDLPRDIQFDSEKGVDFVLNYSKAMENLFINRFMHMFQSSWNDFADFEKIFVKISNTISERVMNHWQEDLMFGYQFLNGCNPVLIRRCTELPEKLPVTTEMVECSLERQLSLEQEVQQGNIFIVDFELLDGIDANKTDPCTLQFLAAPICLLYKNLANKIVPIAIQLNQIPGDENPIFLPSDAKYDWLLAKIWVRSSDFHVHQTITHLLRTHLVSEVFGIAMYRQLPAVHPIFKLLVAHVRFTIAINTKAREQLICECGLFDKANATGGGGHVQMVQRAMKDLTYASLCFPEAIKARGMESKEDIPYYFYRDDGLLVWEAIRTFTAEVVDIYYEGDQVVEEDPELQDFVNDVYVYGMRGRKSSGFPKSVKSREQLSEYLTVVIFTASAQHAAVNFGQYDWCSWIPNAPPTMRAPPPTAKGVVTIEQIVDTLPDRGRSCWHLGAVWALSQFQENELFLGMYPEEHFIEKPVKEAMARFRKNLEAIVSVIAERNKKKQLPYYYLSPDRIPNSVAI
Assay: 5-lipoxygenase inhibition in human leukocytes, 5-HETE formation (5LOA; methods 5LOA1 and 5LOA2)
Format: cell-based
Settings: for IC50: 5-HETE formation, human leukocytes, read-out: Concentration (M) for 50.0 % Inhibition, IC (5LOA)
From the text: To Evaluate the Effect of Each Compounds as a 5-Lipoxygenase Inhibitor in Comparison to Standard Reference Agents in Human Leukocytes (5LOA1)
The purpose of this assay is to evaluate the activity of each compound as an inhibitor of human leukocyte 5-lipoxygenase.
Arachidonic acid and calcium ionophore A23187 are obtained from Sigma (St. Louis, MO). Silica gel plates, GF are obtained from Analtech (Newark, DE). Arachidonic acid, (1-^14 C) and 5-HETE (^3 H), 5 (S)-hydroxy-6-trans,8,11,14-cis eicosatetraenoic acid, are obtained from New England Nuclear (Boston, MA). Six percent Dextran-70 in 0.9% NaCl is obtained from Cutter Labs (Berkeley, CA).
Preparation of Leukocytes
Fresh blood from normal adult men who had not received any drugs for at least the previous five days is obtained by the Community Research Clinic (WL/PD) using venipuncture and collected into heparinized vacuotainer tubes. To every 100 ml of pooled blood is added 25 ml of dextran solution (6% dextran -70 in 0.9% sodium chloride containing 3% dextrose) and this is mixed gently in a plastic cylinder. The mixture is left to stand at room temperature for at least 90 minutes. The upper layer which is rich in leukocytes and platelets is then carefully decanted into 50 ml plastic tubes and centrifuged at about 100×g for eight minutes in an IEC centrifuge and rotor number 269 (about 600 rpm). The supernatant fluid is discarded and the pellet is resuspended in 10 ml of 0.87% ammonium chloride for exactly two minutes. This procedure is to lyse completely contaminating red blood cells. Leukocytes are then separated by centrifugation for ten minutes. The pellet is washed three times by suspension in 20 ml PBS (sodium chloride, 7.1 g; Na2 HPO4, 1.15 g; KH2 PO4, 0.2 g, and KCl, 0.2 g/L) and centrifuged as before. The final pellet is suspended in PBS containing 0.87 mM CaCl2. Viability of the cells is then checked using trypan blue exclusion method and is found to be over 90%.
5-Lipoxygenase Enzyme Assay
Leukocyte cells in suspension (0.98 ml) are incubated with or without test compounds for five minutes at 37° C. in a shaking water bath. At this time a 17 μl mixture is prepared per 1 ml of cell suspension: 100 mM arachidonic acid, 1 μl, 0.05 μCi ^14 C-arachidonic acid in 5 μl; 1 mM calcium ionophore A23187, 10 μl (1). This mixture is added and the incubation continued for five minutes. The reaction is stopped by adding four volumes of absolute ethanol and the mixture is kept in ice for 30 minutes. The floculated precipitate is separated by centrifugation at about 37,000×g for 20 minutes (Beckman Instruments rotor number 40). The alcohol extract is taken to dryness under a stream of nitrogen and the residue is dissolved in 100-200 μl absolute ethanol. At the time any turbidity is removed by centrifugation. An aliquot (25-50 μl) is applied onto 20×20 cm silica gel TLC plate and developed using the following solvent system: diethyl ether, petroleum ether (2040° C.), acetic acid (50:50:1 v/v). Zones of 1 cm apart are scraped from the TLC plate and transferred to mini-vials. Methanol (0.5 ml) is added to dissolve the radioactivity adsorbed to the silica gel and scintillation fluid (H. P., Beckman), 5 ml is then added and vials are counted in a liquid scintillation counter. A sample of ^3 H-5-HETE is applied and used for the identification of the formed 5-HETE.
Total radioactivity in the test as well as the control samples are normalized and the amount of 5-HETE present is calculated accordingly.
IC50 values are defined as the concentrations of test agents which caused a 50% inhibition of the formation of 5-HETE as compared to control and are determined by inspection of the concentration-response curves.
5-Lipoxygenase Assay Using Isolated Human Leukocytes (5LOA2)
The formation of 5-HETE in human leukocytes is considered a measure of 5-lipoxygenase activity. The protocol is described in the following. […]

Q: How did the IC50 turn out when O=C(Nc1ccc(CCc2ccccc2)cc1)C1CS(=O)(=O)c2ccccc2C1=O (centres unmarked) [Example 16, 3,4-Dihydro-4-oxo-N-[(4-(2-phenyl)ethyl]-phenyl]-2H-1-benzothiopyran-3-carboxamide, 1,1-dioxide] was run?
A: 1.77e-05 M

Q: With COc1ccc(CCc2ccc(NC(=O)C3=C(O)c4ccccc4S(=O)(=O)C3)cc2)cc1OC [Example 18, N-[4-[2-(3,4-Dimethoxyphenyl)ethyl]phenyl]-4-hydroxy-2H-1-benzothiopyran-3-carboxamide, 1,1-dioxide] as the compound, how does the IC50 read?
A: 1.35e-05 M

Q: Which IC50 does the source give for COc1ccc(CCc2ccc(NC(=O)C3CS(=O)(=O)c4ccccc4C3=O)cc2)cc1O (centres unmarked) [Example 27, 3,4-Dihydro-N-[4-[2-(3-hydroxy-4-methoxyphenyl)ethyl]phenyl]-4-oxo-2H-1-benzothiopyran-3-carboxamide, 1,1-dioxide] here?
A: 1.8e-05 M

Q: With COc1ccc(CCc2ccc(NC(=O)C3CS(=O)(=O)c4ccccc4C3=O)cc2)cc1 (centres unmarked) [Example 41] as the compound, how does the IC50 read?
A: 7e-06 M

Q: How did the IC50 turn out when O=C(Nc1ccc(CCc2ccc(-c3ccccc3)cc2)cc1)C1CS(=O)(=O)c2ccccc2C1=O (centres unmarked) [Example 46, N-[4-[2-([1,1'-biphenyl]-4-yl)ethyl]phenyl]-3,4-dihydro-4-oxo-2H-1-benzothiopyran-3-carboxamide, 1,1-dioxide] was run?
A: 1.1e-05 M

Q: CCCCOc1ccc(CCc2ccc(NC(=O)C3CS(=O)(=O)c4ccccc4C3=O)cc2)cc1 (centres unmarked) [Example 48] was tested. Which IC50 did it give?
A: 1.59e-05 M and 1.91e-05 M

Q: O=C(Nc1ccc(CCc2ccc3ccccc3c2)cc1)C1=C(O)c2ccccc2S(=O)(=O)C1 [Example 51, 4-Hydroxy-N-[4-[2-(2-naphthalenyl)ethyl]phenyl]-2H-1-benzothiopyran-3-carboxamide, 1,1-dioxide] was tested. Which IC50 did it give?
A: 2.12e-06 M

Q: How did the IC50 turn out when Cc1ccc(CCc2ccc(NC(=O)C3CS(=O)(=O)c4ccccc4C3=O)cc2)cc1C (centres unmarked) [Example 53, N-[4-[2-(3,4-Dimethylphenyl)ethyl]phenyl]-3,4-dihydro-4-oxo-2H-1-benzothiopyran-3-carboxamide, 1,1-dioxide] was run?
A: 3.8e-06 M

Q: With O=C(Nc1ccc(CCc2ccc(Cl)cc2)cc1)C1CS(=O)(=O)c2ccccc2C1=O (centres unmarked) [Example 54, N-[4-[2-(4-Chlorophenyl)ethyl]phenyl]-3,4-dihydro-4-oxo-2H-1-benzothiopyran-3-carboxamide, 1,1-dioxide] as the compound, how does the IC50 read?
A: 5.25e-06 M

Q: For CCCCCCCCCCc1ccc(NC(=O)C2CS(=O)(=O)c3ccccc3C2=O)cc1 (centres unmarked) [Example 60, N-(4-Decylphenyl)-3,4-dihydro-4-oxo-2H-1-benzoothiopyran-3-carboxamide, 1,1-dioxide], which “% Inhibition (5LOA)” value (Concentration 1.00 E -5 M) is on record?
A: 25.2%

Q: What about the “% Inhibition (5LOA)” value (Concentration 2.00 E -5 M) of the same compound?
A: 21.7%

Q: What about the “% Inhibition (5LOA)” value (Concentration 5.00 E -6 M) of the same compound?
A: 7.9%

Q: With O=C(Nc1ccc(CCc2c(F)c(F)c(F)c(F)c2F)cc1)C1=C(O)c2ccccc2S(=O)(=O)C1 [Example 64, N-[4-[2-(2,3,4,5,6-Pentafluorophenyl)ethyl]phenyl]-4-hydroxy-2H-1-benzothiopyran-3-carboxamide, 1,1-dioxide] as the compound, how does the IC50 read?
A: 1.19e-05 M

Q: With O=C(Nc1ccc(C=Cc2ccc([N+](=O)[O-])cc2)cc1)C1CS(=O)(=O)c2ccccc2C1=O (centres unmarked) [Example 67, 2H-1-Benzothiopyran-3-carboxamide, 3,4-dihydro-N-[4-[2-(4-nitrophenyl)ethenyl]phenyl]-4-oxo-, 1,1-dixide] as the compound, how does the IC50 read?
A: 1.17e-05 M

Q: With O=C(Nc1ccc(CCc2cccc3ccccc23)cc1)C1=C(O)c2ccccc2S(=O)(=O)C1 [Example 73, 2H-1-Benzothiopyran-3-carboxamide, 4-hydroxy-N-[4-[2-(1-naphthalenyl)ethyl]phenyl], 1,1-dioxide] as the compound, how does the IC50 read?
A: 4.09e-06 M and 8.2e-06 M

Q: With O=C(Nc1ccc(C=Cc2ccc(Cl)c(Cl)c2)cc1)C1=C(O)c2ccccc2S(=O)(=O)C1 [Example 74, 2H-1-Benzothiopyran-3-carboxamide, N-[4-[2-(3,4-dichlorophenyl)ethenyl]phenyl]-4-hydroxy-, 1,1-dioxide] as the compound, how does the IC50 read?
A: 9.3e-06 M

Q: O=C(Nc1cccc(CCc2ccc(Cl)c(Cl)c2)c1)C1=C(O)c2ccccc2S(=O)(=O)C1 [Example 76, 2H-1-Benzothiopyran-3-carboxamide, N-[3-[2-(3,4-dichlorophenyl)ethyl]phenyl]-4-hydroxy-, 1,1-dioxide] was tested. Which IC50 did it give?
A: 1.1e-05 M

Q: For O=C(Nc1ccc(Cc2ccc(Cl)c(Cl)c2)cc1)C1=C(O)c2ccccc2S(=O)(=O)C1 [Example 78, 2H-1-Benzothiopyran-3-carboxamide, N-[4-[(3,4-dichlorophenyl)methyl]phenyl]-4-hydroxy-, 1,1-dioxide], which IC50 is on record?
A: 1.06e-05 M

Q: Which IC50 does the source give for O=C(Nc1ccc(CCCc2ccc(Cl)c(Cl)c2)cc1)C1=C(O)c2ccccc2S(=O)(=O)C1 [Example 79, 2H-1-Benzothiopyran-3-carboxamide, N-[4-[3-(3,4-dichlorphenyl)propyl]phenyl]-4-hydroxy-, 1,1-dioxide] here?
A: 9.2e-06 M

Q: With O=C(Nc1ccccc1CCCc1ccc(Cl)c(Cl)c1)C1=C(O)c2ccccc2S(=O)(=O)C1 [Example 80, 2H-1-Benzothiopyran-3-carboxamide, N-[2-[3-(3,4-dichlorophenyl)propyl]phenyl]-4-hydroxy-, 1,1-dioxide] as the compound, how does the IC50 read?
A: 1.01e-05 M

Q: COc1cc(CCc2ccc(NC(=O)C(=O)c3sc4ccccc4c3O)cc2)ccc1O [Example 142, Benzo[b]thiophene-2-acetamide, 3-hydroxy-N-[4-[2-(4-hydroxy-3-methoxyphenyl)ethyl]phenyl]-α-oxo-] was tested. Which IC50 did it give?
A: 6e-06 M

Q: For COc1ccc(CCc2ccc(NC(=O)c3sc4ccccc4c3O)cc2)cc1OC [Example 143, Benzo[b]thiophene-2-carboxamide, N-[4-[2-(3,4-dimethoxphenyl)ethyl]phenyl]-3-hydroxy], which IC50 is on record?
A: 5.22e-06 M

Q: Which IC50 does the source give for O=C(Nc1cccc(CCc2ccc(Cl)c(Cl)c2)c1)c1sc2ccccc2c1O [Example 146, Benzo[b]thiophene-2-carboxamide, N-[3-[2-(3,4-dichlorophenyl)ethyl]phenyl]-3-hydroxy] here?
A: 3.96e-06 M
